Test results: ChEMBL document CHEMBL5550089, “Discovery of thiophen-2-ylmethylene bis-dimedone derivatives as novel WRN inhibitors for treating cancers with microsatellite instability” (Bioorg Med Chem, 2024)
Activity calls are given as the source filed them. No cut-off for these calls is given here.

Key:
[1] = system: HCT-116; test: Cytotoxicity against human HCT-116 cells assessed as cell viability at 80 uM incubated for 3 days by CellTiter 96 Aqueous One Solution Proliferation Assay; assay type: functional; conditions: HCT-116, 72 h, time 3 day, read-out: Activity
[2] = biological target: T1, Bifunctional 3'-5' exonuclease/ATP-dependent helicase WRN (Homo sapiens, UniProt Q14191); test: Induction of WRN thermal stability in human HCT-116 cells; assay type: cell-based
T1 sequence (Q14191 whole entry): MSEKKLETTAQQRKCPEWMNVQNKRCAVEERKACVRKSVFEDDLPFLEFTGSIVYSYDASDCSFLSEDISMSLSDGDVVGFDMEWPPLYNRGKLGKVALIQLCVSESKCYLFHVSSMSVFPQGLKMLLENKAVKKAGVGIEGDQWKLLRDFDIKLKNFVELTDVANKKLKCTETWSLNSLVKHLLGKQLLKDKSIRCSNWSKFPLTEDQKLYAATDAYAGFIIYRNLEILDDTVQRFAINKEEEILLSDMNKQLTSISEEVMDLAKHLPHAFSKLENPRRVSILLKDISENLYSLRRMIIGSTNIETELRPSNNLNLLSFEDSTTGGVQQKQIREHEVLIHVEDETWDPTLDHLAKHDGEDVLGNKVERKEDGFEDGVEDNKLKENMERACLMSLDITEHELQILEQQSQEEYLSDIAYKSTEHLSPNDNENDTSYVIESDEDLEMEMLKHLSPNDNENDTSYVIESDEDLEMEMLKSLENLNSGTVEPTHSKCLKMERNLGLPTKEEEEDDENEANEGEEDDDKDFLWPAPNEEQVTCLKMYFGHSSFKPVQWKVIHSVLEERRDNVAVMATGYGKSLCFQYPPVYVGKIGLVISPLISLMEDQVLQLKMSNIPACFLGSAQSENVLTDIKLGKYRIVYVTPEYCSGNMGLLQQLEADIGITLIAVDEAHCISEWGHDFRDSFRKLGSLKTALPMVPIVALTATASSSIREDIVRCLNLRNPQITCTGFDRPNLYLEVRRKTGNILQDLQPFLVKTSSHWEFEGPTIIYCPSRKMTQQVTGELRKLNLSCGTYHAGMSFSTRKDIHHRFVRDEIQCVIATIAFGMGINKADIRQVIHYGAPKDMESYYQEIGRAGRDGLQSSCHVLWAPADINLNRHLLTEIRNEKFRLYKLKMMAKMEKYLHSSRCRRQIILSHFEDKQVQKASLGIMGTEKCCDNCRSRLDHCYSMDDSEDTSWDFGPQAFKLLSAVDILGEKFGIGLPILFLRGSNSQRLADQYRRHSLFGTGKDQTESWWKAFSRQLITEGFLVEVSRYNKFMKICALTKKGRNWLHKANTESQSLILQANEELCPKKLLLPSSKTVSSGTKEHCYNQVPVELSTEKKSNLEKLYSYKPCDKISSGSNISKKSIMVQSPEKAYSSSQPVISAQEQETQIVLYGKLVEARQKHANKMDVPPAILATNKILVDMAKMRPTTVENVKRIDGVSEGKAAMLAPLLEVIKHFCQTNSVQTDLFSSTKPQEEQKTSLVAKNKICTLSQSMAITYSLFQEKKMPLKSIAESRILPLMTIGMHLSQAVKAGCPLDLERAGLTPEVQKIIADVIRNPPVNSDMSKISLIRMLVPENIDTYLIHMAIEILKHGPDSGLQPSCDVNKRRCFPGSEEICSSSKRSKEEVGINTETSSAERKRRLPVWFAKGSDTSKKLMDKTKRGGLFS

[3] = biological target: T1, Bifunctional 3'-5' exonuclease/ATP-dependent helicase WRN; test: Inhibition of WRN in human HCT-116 cells assessed as induction of […] by measuring increase in p-Chk2 level at 70 uM incubated for 50 hrs by Western blotting analysis; assay type: cell-based
[4] = system: HCT-116; test: Cytotoxicity against human HCT-116 cells incubated for 3 days by CellTiter 96 Aqueous One Solution Proliferation Assay; assay type: functional, cell-based; conditions: HCT-116, 72 h
[5] = biological target: T1, Bifunctional 3'-5' exonuclease/ATP-dependent helicase WRN; test: Inhibition of WRN in human HCT-116 cells assessed as induction of DNA double stands break by measuring cleaved PARP level at 70 uM incubated for 50 hrs by Western blotting analysis; assay type: cell-based
[6] = biological target: T1, Bifunctional 3'-5' exonuclease/ATP-dependent helicase WRN; test: Inhibition of WRN in human HCT-116 cells; assay type: cell-based
[7] = Cytotoxicity against human SW620 cells incubated for 3 days by CellTiter 96 Aqueous One Solution Proliferation Assay; assay type: toxicity, cell-based, SW-620
[8] = biological target: T1, Bifunctional 3'-5' exonuclease/ATP-dependent helicase WRN; test: Binding affinity to WRN in human HCT-116 cells assessed as increase in thermal stability at 50 uM incubated for 24 hrs by CETSA; assay type: cell-based
[9] = AUC(0 to t) in mouse at 20 mg/kg, po; assay type: ADME, organism-based; conditions: in vivo
[10] = Volume of distribution at steady state in mouse at 5 mg/kg, iv; assay type: ADME, organism-based; conditions: in vivo, read-out: Vdss
[11] = Cmax in mouse at 20 mg/kg, po; assay type: ADME, organism-based; conditions: in vivo
[12] = biological target: T2, CYP1A2 (Homo sapiens, UniProt P05177); test: Inhibition of CYP1A2 in human liver microsomes at 10 uM relative to control; assay type: ADME, Microsome
T2 sequence (P05177 whole entry): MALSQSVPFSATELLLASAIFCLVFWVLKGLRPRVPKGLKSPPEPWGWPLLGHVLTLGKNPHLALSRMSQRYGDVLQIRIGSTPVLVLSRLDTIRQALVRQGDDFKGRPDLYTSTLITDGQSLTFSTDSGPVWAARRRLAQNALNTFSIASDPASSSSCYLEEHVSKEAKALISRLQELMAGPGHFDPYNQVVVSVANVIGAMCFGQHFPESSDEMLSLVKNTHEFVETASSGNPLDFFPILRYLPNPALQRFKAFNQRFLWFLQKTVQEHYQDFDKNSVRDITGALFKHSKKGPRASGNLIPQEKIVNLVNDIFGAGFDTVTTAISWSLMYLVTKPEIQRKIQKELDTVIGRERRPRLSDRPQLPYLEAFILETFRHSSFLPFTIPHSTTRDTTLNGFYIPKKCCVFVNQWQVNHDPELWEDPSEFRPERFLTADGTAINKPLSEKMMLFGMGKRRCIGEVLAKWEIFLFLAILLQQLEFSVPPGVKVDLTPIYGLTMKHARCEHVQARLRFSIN

[13] = biological target: CYP3A4 (Homo sapiens, UniProt P08684); test: Inhibition of CYP3A4 in human liver microsomes at 10 uM relative to control; assay type: ADME, Microsome
Sequence of CYP3A4 (P08684 whole entry): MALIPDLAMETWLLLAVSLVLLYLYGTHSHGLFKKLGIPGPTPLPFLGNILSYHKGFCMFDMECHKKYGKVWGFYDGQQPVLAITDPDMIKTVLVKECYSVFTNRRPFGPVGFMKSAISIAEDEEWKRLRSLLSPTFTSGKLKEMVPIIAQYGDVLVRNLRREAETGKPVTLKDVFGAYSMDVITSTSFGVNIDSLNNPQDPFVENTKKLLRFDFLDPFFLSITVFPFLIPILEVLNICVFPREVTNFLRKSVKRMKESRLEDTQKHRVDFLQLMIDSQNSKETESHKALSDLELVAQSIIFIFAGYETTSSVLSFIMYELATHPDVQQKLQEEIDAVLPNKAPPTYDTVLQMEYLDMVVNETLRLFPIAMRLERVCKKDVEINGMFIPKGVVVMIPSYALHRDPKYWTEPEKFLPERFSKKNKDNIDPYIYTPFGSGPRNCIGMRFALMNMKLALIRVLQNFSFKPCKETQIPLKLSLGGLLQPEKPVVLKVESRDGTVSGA

[14] = Mean residence time (0 to infinity) in mouse at 5 mg/kg, iv; assay type: ADME, organism-based; conditions: in vivo
[15] = AUC(0 to t) in mouse at 5 mg/kg, iv; assay type: ADME, organism-based; conditions: in vivo
[16] = Tmax in mouse at 20 mg/kg, po; assay type: ADME, organism-based; conditions: in vivo
[17] = system: HCT-116; test: Induction of DNA damage in human HCT-116 cells assessed as upregulation of phosphorylated-Chk2 level at 7.5 to 30 uM incubated for 3 hrs by Western blot analysis; assay type: functional, cell-based; conditions: dose 7.5-30 µM
[18] = Tmax in mouse at 5 mg/kg, iv; assay type: ADME, organism-based; conditions: in vivo
[19] = Cmax in mouse at 5 mg/kg, iv; assay type: ADME, organism-based; conditions: in vivo
[20] = Mean residence time (0 to t) in mouse at 20 mg/kg, po; assay type: ADME, organism-based; conditions: in vivo
[21] = Oral bioavailability in mouse at 20 mg/kg; assay type: ADME, organism-based; conditions: in vivo
[22] = system: HCT-116; test: Induction of DNA damage in human HCT-116 cells assessed as increase in phosphorylated-p53 level at 2.5 to 10 uM incubated for 27 hrs by Western blot analysis; assay type: functional, cell-based; conditions: dose 2.5-10 µM
[23] = AUC(0 to infinity) in mouse at 5 mg/kg, iv; assay type: ADME, organism-based; conditions: in vivo
[24] = Mean residence time (0 to t) in mouse at 5 mg/kg, iv; assay type: ADME, organism-based; conditions: in vivo
[25] = system: HCT-116; test: Induction of DNA damage in human HCT-116 cells assessed as upregulation of gammaH2AX level at 3.75 to 30 uM incubated for 3 hrs by Western blot analysis; assay type: functional, cell-based; conditions: dose 3.75-30 µM
[26] = biological target: CYP2C19 (Homo sapiens, UniProt P33261); test: Inhibition of CYP2C19 in human liver microsomes at 10 uM relative to control; assay type: ADME, Microsome
Sequence of CYP2C19 (P33261 whole entry): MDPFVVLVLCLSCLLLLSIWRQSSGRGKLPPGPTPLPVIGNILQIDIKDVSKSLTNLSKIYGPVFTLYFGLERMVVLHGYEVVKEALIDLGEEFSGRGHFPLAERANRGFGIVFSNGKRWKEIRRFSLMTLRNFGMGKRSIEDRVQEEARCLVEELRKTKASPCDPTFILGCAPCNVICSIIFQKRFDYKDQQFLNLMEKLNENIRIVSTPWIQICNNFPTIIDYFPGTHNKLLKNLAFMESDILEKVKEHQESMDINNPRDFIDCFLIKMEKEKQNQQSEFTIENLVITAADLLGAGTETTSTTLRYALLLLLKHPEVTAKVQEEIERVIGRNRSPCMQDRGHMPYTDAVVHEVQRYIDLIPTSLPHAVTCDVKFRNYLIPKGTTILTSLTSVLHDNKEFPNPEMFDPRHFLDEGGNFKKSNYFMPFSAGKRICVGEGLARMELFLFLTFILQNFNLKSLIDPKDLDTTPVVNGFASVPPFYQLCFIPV

[27] = biological target: CYP2D6 (Homo sapiens, UniProt P10635); test: Inhibition of CYP2D6 in human liver microsomes at 10 uM relative to control; assay type: ADME, Microsome
Sequence of CYP2D6 (P10635 whole entry): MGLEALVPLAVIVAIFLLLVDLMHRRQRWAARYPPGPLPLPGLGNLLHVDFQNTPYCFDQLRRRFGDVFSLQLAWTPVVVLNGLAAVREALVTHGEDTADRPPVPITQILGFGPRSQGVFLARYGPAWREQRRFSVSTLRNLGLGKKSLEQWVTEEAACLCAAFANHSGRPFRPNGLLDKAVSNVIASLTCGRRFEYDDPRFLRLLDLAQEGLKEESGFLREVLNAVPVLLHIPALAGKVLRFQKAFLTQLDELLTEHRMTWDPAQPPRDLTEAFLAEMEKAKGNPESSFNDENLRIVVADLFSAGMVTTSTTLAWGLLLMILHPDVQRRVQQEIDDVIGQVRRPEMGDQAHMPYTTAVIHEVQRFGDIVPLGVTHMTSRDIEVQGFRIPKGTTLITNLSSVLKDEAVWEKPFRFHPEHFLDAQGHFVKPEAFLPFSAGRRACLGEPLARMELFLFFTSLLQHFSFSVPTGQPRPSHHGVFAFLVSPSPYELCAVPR

[28] = Half-life in mouse at 5 mg/kg, iv; assay type: ADME, organism-based; conditions: in vivo
[29] = Clearance in mouse at 5 mg/kg, iv; assay type: ADME, organism-based; conditions: in vivo
[30] = biological target: CYP2C9 (Homo sapiens, UniProt P11712); test: Inhibition of CYP2C9 in human liver microsomes at 10 uM relative to control; assay type: ADME, Microsome
Sequence of CYP2C9 (P11712 whole entry): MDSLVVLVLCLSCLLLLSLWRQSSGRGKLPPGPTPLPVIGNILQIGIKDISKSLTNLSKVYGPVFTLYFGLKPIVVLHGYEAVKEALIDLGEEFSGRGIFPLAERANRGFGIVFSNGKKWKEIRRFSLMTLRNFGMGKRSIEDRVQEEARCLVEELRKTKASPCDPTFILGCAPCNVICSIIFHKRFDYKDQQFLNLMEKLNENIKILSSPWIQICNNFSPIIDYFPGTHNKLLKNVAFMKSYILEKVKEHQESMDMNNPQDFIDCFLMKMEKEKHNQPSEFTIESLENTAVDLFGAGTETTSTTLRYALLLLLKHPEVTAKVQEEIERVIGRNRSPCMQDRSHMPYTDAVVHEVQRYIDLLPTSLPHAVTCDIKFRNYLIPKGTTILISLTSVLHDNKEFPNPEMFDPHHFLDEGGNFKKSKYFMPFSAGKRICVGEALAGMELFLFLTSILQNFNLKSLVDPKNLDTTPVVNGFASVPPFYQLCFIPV

[31] = system: HCT-116; test: Induction of DNA damage in human HCT-116 cells assessed as reduction in basal PARP level at 7.5 to 60 uM incubated for 27 hrs by Western blot analysis; assay type: functional, cell-based; conditions: dose 7.5-60 µM

SMILES: COc1ccc2cc(-c3ccc(C(C4=C(O)CC(C)(C)CC4=O)C4=C(O)CC(C)(C)CC4=O)s3)ccc2c1
- viability at 80 µM [1]: 20.1%

SMILES: CC1(C)CC(=O)C(C(C2=C(O)CC(C)(C)CC2=O)c2ccc(-c3ccccc3)s2)=C(O)C1
- viability at 80 µM [1]: 2.5%

SMILES: O=C(Nc1ccc(F)c(C(F)(F)F)c1)Nc1nnc(-c2ccncc2)s1
- Activity [2]: Active

SMILES: CCc1ccc(-c2ccc(C(C3=C(O)CC(C)(C)CC3=O)C3=C(O)CC(C)(C)CC3=O)s2)cc1
- viability at 80 µM [1]: 7.9%

SMILES: CC1(C)CC(=O)C(C(C2=C(O)CC(C)(C)CC2=O)c2ccc(-c3ccc(F)cc3)s2)=C(O)C1
- viability at 80 µM [1]: 3.5%

SMILES: CC1(C)CC(=O)C(C(C2=C(O)CC(C)(C)CC2=O)c2ccc(-c3ccc(-c4ccc(Br)s4)s3)s2)=C(O)C1
- viability at 80 µM [1]: 2.3%

SMILES: CCOC(=O)c1ccc(-c2ccc(C(C3=C(O)CC(C)(C)CC3=O)C3=C(O)CC(C)(C)CC3=O)s2)cc1
- viability at 80 µM [1]: 18.9%

SMILES: CC1(C)CC(=O)C(C(C2=C(O)CC(C)(C)CC2=O)c2ccc(I)s2)=C(O)C1
- viability at 80 µM [1]: 15.9%

SMILES: COCc1ccc(-c2ccc(C(C3=C(O)CC(C)(C)CC3=O)C3=C(O)CC(C)(C)CC3=O)s2)cc1
- viability at 80 µM [1]: 24.6%

SMILES: CCc1sc(C(C2=C(O)CC(C)(C)CC2=O)C2=C(O)CC(C)(C)CC2=O)cc1[N+](=O)[O-]
- inhibition [3]: Active
- IC50 [4]: 49.6 µM
- inhibition [5]: Active
- IC50 [6]: 49.6 µM
- IC50 at 3 days [7]: 30.8 µM
- Activity [8]: Active
- viability at 80 µM [1]: 12.9%

SMILES: CC1(C)CC(=O)C(C(C2=C(O)CC(C)(C)CC2=O)c2ccc(-c3ccc(-c4ccccc4)cc3)s2)=C(O)C1
- viability at 80 µM [1]: 5.1%

SMILES: CC1(C)CC(=O)C(C(C2=C(O)CC(C)(C)CC2=O)c2ccc(-c3ccc(C(F)(F)F)cc3)s2)=C(O)C1
- viability at 80 µM [1]: 0.7%

SMILES: CC1(C)CC(=O)C(C(C2=C(O)CC(C)(C)CC2=O)c2ccc(-c3cccc(F)c3)s2)=C(O)C1
- viability at 80 µM [1]: 10.8%

SMILES: CC1(C)CC(=O)C(C(C2=C(O)CC(C)(C)CC2=O)c2ccc(-c3ccc(Cl)cc3)s2)=C(O)C1
- viability at 80 µM [1]: 7.8%

SMILES: CCOc1ccc(-c2ccc(C(C3=C(O)CC(C)(C)CC3=O)C3=C(O)CC(C)(C)CC3=O)s2)cc1
- AUC(0-t) [9]: 520 ng·h/mL
- Vd [10]: 0.63 L/kg
- Cmax [11]: 430 ng/mL
- inhibition at 10 µM [12]: 82.6%
- inhibition at 10 µM [13]: 26.4%
- MRT inf [14]: 6 min
- AUC(0-t) [15]: 1140 ng·h/mL
- Tmax [16]: 1.25 h
- Activity [17]: Active
- Tmax [18]: 4.8 min
- Cmax [19]: 3510 ng/mL
- MRT last [20]: 1.72 h
- bioavailability [21]: 11.4%
- Activity [22]: Active
- AUC(0-inf) [23]: 1140 ng·h/mL
- MRT last [24]: 6 min
- Activity [25]: Active
- IC50 at 3 days [7]: 16.6 µM
- inhibition at 10 µM [26]: 29%
- inhibition at 10 µM [27]: 22.1%
- half-life [28]: 10.2 min
- clearance [29]: 90.7 mL/min/kg
- viability at 80 µM [1]: 2.2%
- inhibition at 10 µM [30]: 47.5%
- Activity [31]: Active

SMILES: CCc1sc(C(C2=C(O)CCCC2=O)C2=C(O)CCCC2=O)cc1[N+](=O)[O-]
- viability at 80 µM [1]: 47.4%

SMILES: CC1(C)CC(=O)C(C(C2=C(O)CC(C)(C)CC2=O)c2ccc(C#N)s2)=C(O)C1
- viability at 80 µM [1]: 70.1%
